# Target: Recombinant human cathepsin S (CatS) (Homo sapiens, UniProt P25774)
# Test: Recombinant human cathepsin S (CatS) inhibition assay, fluorogenic substrate Z-Valine-Valine-Arginine-AMC;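 also: Baculovirus-expressed CatS in pH 5.0 sodium acetate buffer with DTT and NaCl, fluorescence read each minute over 20 min, inhibition derived from rate slope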
# Details: not given
# Sequence of Recombinant human cathepsin S (CatS) (P25774 115-331): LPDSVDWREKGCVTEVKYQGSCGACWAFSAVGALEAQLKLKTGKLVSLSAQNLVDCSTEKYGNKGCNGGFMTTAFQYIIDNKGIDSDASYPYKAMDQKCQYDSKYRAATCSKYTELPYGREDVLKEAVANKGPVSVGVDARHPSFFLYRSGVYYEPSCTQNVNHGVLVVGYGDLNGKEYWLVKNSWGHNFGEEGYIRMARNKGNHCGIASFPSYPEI
row,Compound,IC50
1,"CS(=O)(=O)N1CCc2c(c(-c3ccc(Cl)c(C#Cc4ccc5c(c4)CCNC5)c3)nn2CCCN2CCOCC2)C1 [Example 365, 6-({2-Chloro-5-[5-(methylsulfonyl)-1-(3-morpholin-4-ylpropyl)-4,5,6,7-tetrahydro-1H-pyrazolo[4,3-c]pyridin-3-yl]phenyl}ethynyl)-1,2,3,4-tetrahydroisoquinoline]",280 nM
2,"CS(=O)(=O)N1CCc2c(c(-c3ccc(Cl)c(C#Cc4ccc(CCCC(=O)O)cc4)c3)nn2CCCN2CCOCC2)C1 [Example 8, 4-(4-{2-Chloro-5-[5-methanesulfonyl-1-(3-morpholin-4-yl-propyl)-4,5,6,7-tetrahydro-1H-pyrazolo[4,3-c]pyridin-3-yl]-phenylethynyl}-phenyl)-butyric acid]",190 nM
3,"CS(=O)(=O)N1CCc2c(c(-c3ccc(Cl)c(C#Cc4ccc(CN[C@H](CO)c5ccccc5)cc4)c3)nn2CCCN2CCN(c3ccccn3)CC2)C1 [Example 218, (2S)-2-[({4-[(2-Chloro-5-{5-(methylsulfonyl)-1-[3-(4-pyridin-2-ylpiperazin-1-yl)propyl]-4,5,6,7-tetrahydro-1H-pyrazolo[4,3-c]pyridin-3-yl}phenyl)ethynyl]phenyl}methyl)amino]-2-phenylethanol]",30 nM
4,"C[C@H]1COCCN1CCCn1nc(-c2ccc(Cl)c(CCc3ccc(CNCc4ccc(Cl)cc4)cc3)c2)c2c1CCN(C(=O)C(N)=O)C2 [Example 243, 2-[3-(4-Chloro-3-{2-[4-({[(4-chlorophenyl)methyl]amino}methyl)phenyl]ethyl}phenyl)-1-{3-[(3S)-3-methylmorpholin-4-yl]propyl}-1,4,6,7-tetrahydro-5H-pyrazolo[4,3-c]pyridin-5-yl]-2-oxoacetamide]",40 nM
5,"CS(=O)(=O)N1CCc2c(c(-c3ccc(Cl)c(C#Cc4ccc(CNCc5ccc(Cl)cc5)cc4)c3)nn2CCCN2CCOCC2C(=O)O)C1 (centres unmarked) [Example 437, 4-{3-[3-(4-Chloro-3-{[4-({[(4-chlorophenyl)methyl]amino}methyl)phenyl]ethynyl}phenyl)-5-(methylsulfonyl)-4,5,6,7-tetrahydro-1H-pyrazolo[4,3-c]pyridin-1-yl]propyl}morpholine-3-carboxylic acid]",570 nM
6,"CS(=O)(=O)N1CCc2c(c(-c3ccc(Cl)c(CCCN)c3)nn2CCCN2CCOCC2)C1 [Example 304, 3-{2-Chloro-5-[5-(methylsulfonyl)-1-(3-morpholin-4-ylpropyl)-4,5,6,7-tetrahydro-1H-pyrazolo[4,3-c]pyridin-3-yl]phenyl}propan-1-amine]",17000 nM
7,"CCNCc1cc(C#Cc2cc(-c3nn(CCCN4CCCCC4)c4c3CN(C(=O)C(N)=O)CC4)ccc2Cl)ccc1Cl [Example 592, 2-{3-[4-Chloro-3-({4-chloro-3-[(ethylamino)methyl]phenyl}ethynyl)phenyl]-1-(3-piperidin-1-ylpropyl)-1,4,6,7-tetrahydro-5H-pyrazolo[4,3-c]pyridin-5-yl}-2-oxoacetamide]",20 nM
8,"C[C@@H]1COCCN1CCCn1nc(-c2ccc(Cl)c(C#Cc3ccc(CNCc4ccc(Cl)cc4)cc3)c2)c2c1CCN(S(C)(=O)=O)C2 [Example 536, 1-[4-({2-Chloro-5-[1-{3-[(3R)-3-methylmorpholin-4-yl]propyl}-5-(methylsulfonyl)-4,5,6,7-tetrahydro-1H-pyrazolo[4,3-c]pyridin-3-yl]phenyl}ethynyl)phenyl]-N-[(4-chlorophenyl)methyl]methanamine]",200 nM
9,"COC(=O)C1COCCN1CCCn1nc(-c2ccc(Cl)c(C#Cc3ccc(CNCc4ccc(Cl)cc4)cc3)c2)c2c1CCN(S(C)(=O)=O)C2 (centres unmarked) [Example 418, Methyl 4-{3-[3-(4-chloro-3-{[4-({[(4-chlorophenyl)methyl]amino}methyl)phenyl]ethynyl}phenyl)-5-(methylsulfonyl)-4,5,6,7-tetrahydro-1H-pyrazolo[4,3-c]pyridin-1-yl]propyl}morpholine-3-carboxylate]",1030 nM
10,"CS(=O)(=O)N1CCc2c(c(-c3ccc(Cl)c(C#Cc4ccc(Oc5ccc(I)cc5)cc4)c3)nn2CCCN2CCOCC2)C1 [Example 14, 3-{4-Chloro-3-[4-(4-iodo-phenoxy)-phenylethynyl]-phenyl}-5-methanesulfonyl-1-(3-morpholin-4-yl-propyl)-4,5,6,7-tetrahydro-1H-pyrazolo[4,3-c]pyridine]",20000 nM
11,"NC(=O)N1CCc2c(c(-c3ccc(Cl)c(C#Cc4ccc(Cl)cc4)c3)nn2CCCN2CCOCC2)C1 [Example 144, 3-[4-Chloro-3-(4-chloro-phenylethynyl)-phenyl]-1-(3-morpholin-4-yl-propyl)-1,4,6,7-tetrahydro-pyrazolo[4,3-c]pyridine-5-carboxylic acid amide]",60 nM
12,"CS(=O)(=O)N1CCc2c(c(-c3ccc(Cl)c(C#Cc4ccc5c(c4)CN[C@H](C(=O)N4CCCC4)C5)c3)nn2CCCN2CCOCC2)C1 [Example 466, (3S)-7-({2-Chloro-5-[5-(methylsulfonyl)-1-(3-morpholin-4-ylpropyl)-4,5,6,7-tetrahydro-1H-pyrazolo[4,3-c]pyridin-3-yl]phenyl}ethynyl)-3-(pyrrolidin-1-ylcarbonyl)-1,2,3,4-tetrahydroisoquinoline]",50 nM
13,"CC(C)(C)OC(=O)NCc1ccc(C#Cc2cc(-c3nn(CCCN4CCOCC4)c4c3CN(S(C)(=O)=O)CC4)ccc2Cl)cc1 [Example 40, (4-{2-Chloro-5-[5-methanesulfonyl-1-(3-morpholin-4-yl-propyl)-4,5,6,7-tetrahydro-1H-pyrazolo[4,3-c]pyridin-3-yl]-phenylethynyl}-benzyl)-carbamic acid tert-butyl ester]",410 nM
14,"CS(=O)(=O)N1CCc2c(c(-c3ccc(Cl)c(C#Cc4ccc5c(c4)CN[C@H](C(=O)N4CCCCC4)C5)c3)nn2CCCN2CCOCC2)C1 [Example 486, (3S)-7-({2-Chloro-5-[5-(methylsulfonyl)-1-(3-morpholin-4-ylpropyl)-4,5,6,7-tetrahydro-1H-pyrazolo[4,3-c]pyridin-3-yl]phenyl}ethynyl)-3-(piperidin-1-ylcarbonyl)-1,2,3,4-tetrahydroisoquinoline]",30 nM
15,"CS(=O)(=O)N1CCc2c(c(-c3ccc(Cl)c(C#Cc4ccc(CNCc5ccc(Cl)cc5)c(F)c4)c3)nn2CCCN2CCOCC2)C1 [Example 436, 1-[4-({2-Chloro-5-[5-(methylsulfonyl)-1-(3-morpholin-4-ylpropyl)-4,5,6,7-tetrahydro-1H-pyrazolo[4,3-c]pyridin-3-yl]phenyl}ethynyl)-2-fluorophenyl]-N-[(4-chlorophenyl)methyl]methanamine]",280 nM

# Same assay, conditions: CatS IC50
row,Compound,IC50
1,"NC(=O)C(=O)N1CCc2c(c(-c3ccc(Cl)c(C#Cc4ccc(Cl)c(CNC5CCCC5)c4)c3)nn2CCCN2CCCCC2)C1 [Example 595, 2-{3-[4-Chloro-3-({4-chloro-3-[(cyclopentylamino)methyl]phenyl}ethynyl)phenyl]-1-(3-piperidin-1-ylpropyl)-1,4,6,7-tetrahydro-5H-pyrazolo[4,3-c]pyridin-5-yl}-2-oxoacetamide]",10 nM
2,"CS(=O)(=O)N1CCc2c(c(-c3ccc(Cl)c(C#Cc4ccc(CNCc5ccc(Cl)cc5)cc4)c3)nn2CCCN2CC[C@@H](O)C2)C1 [Example 383, (3R)-1-{3-[3-(4-Chloro-3-{[4-({[(4-chlorophenyl)methyl]amino}methyl)phenyl]ethynyl}phenyl)-5-(methylsulfonyl)-4,5,6,7-tetrahydro-1H-pyrazolo[4,3-c]pyridin-1-yl]propyl}pyrrolidin-3-ol]",120 nM
3,"C=CCNCc1ccc(C#Cc2cc(-c3nn(CCCN4CCOCC4)c4c3CN(S(C)(=O)=O)CC4)ccc2Cl)cc1 [Example 349, N-{[4-({2-Chloro-5-[5-(methylsulfonyl)-1-(3-morpholin-4-ylpropyl)-4,5,6,7-tetrahydro-1H-pyrazolo[4,3-c]pyridin-3-yl]phenyl}ethynyl)phenyl]methyl}prop-2-en-1-amine]",550 nM
4,"CC(C)(C)OC(=O)N1CCC(C2CCN(C[C@H](O)Cn3nc(-c4ccc(Cl)c(C#Cc5ccccn5)c4)c4c3CCN(S(C)(=O)=O)C4)CC2)CC1 [Example 234, 1,1-Dimethylethyl 1′-[(2S)-3-{3-[4-chloro-3-(pyridin-2-ylethynyl)phenyl]-5-(methylsulfonyl)-4,5,6,7-tetrahydro-1H-pyrazolo[4,3-c]pyridin-1-yl}-2-hydroxypropyl]-4,4′-bipiperidine-1-carboxylate]",280 nM
5,"C[C@H]1COCCN1CCCn1nc(-c2ccc(Cl)c(C#Cc3ccc(Cl)c(C(=O)N4CCCNCC4)c3)c2)c2c1CCN(C(=O)C(N)=O)C2 [Example 575, 2-[3-(4-Chloro-3-{[4-chloro-3-(1,4-diazepan-1-ylcarbonyl)phenyl]ethynyl}phenyl)-1-{3-[(3S)-3-methylmorpholin-4-yl]propyl}-1,4,6,7-tetrahydro-5H-pyrazolo[4,3-c]pyridin-5-yl]-2-oxoacetamide]",170 nM
6,"COC(=O)CNCc1cccc(C#Cc2cc(-c3nn(CCCN4CCOCC4)c4c3CN(S(C)(=O)=O)CC4)ccc2Cl)c1 [Example 188, Methyl N-{[3-({2-chloro-5-[5-(methylsulfonyl)-1-(3-morpholin-4-ylpropyl)-4,5,6,7-tetrahydro-1H-pyrazolo[4,3-c]pyridin-3-yl]phenyl}ethynyl)phenyl]methyl}glycinate]",550 nM
7,"COc1ccccc1C#Cc1cc(-c2nn(CCCN3CCOCC3)c3c2CN(S(C)(=O)=O)CC3)ccc1Cl [Example 24, 3-[4-Chloro-3-(2-methoxy-phenylethynyl)-phenyl]-5-methanesulfonyl-1-(3-morpholin-4-yl-propyl)-4,5,6,7-tetrahydro-1H-pyrazolo[4,3-c]pyridine]",560 nM
8,"CS(=O)(=O)N1CCc2c(c(-c3ccc(Cl)c(C#Cc4cccc(CNCc5ccc(Cl)cc5)c4)c3)nn2CCCN2CCN(c3ccccc3)CC2)C1 [Example 446, 1-{3-[(2-Chloro-5-{5-(methylsulfonyl)-1-[3-(4-phenylpiperazin-1-yl)propyl]-4,5,6,7-tetrahydro-1H-pyrazolo[4,3-c]pyridin-3-yl}phenyl)ethynyl]phenyl}-N-[(4-chlorophenyl)methyl]methanamine]",70 nM

# — US20080200454A1, “CARBON-LINKED TETRAHYDRO-PYRAZOLO-PYRIDINE MODULATORS OF CATHEPSIN S” (priority 2007, published 2008)
